The record followed here is US9637520B2, “Template-fixed peptidomimetics with CXCR7 modulating activity” (POLYPHOR AG, priority 2010, dated 2017).

This test has as its target T1, CXCR7 (Homo sapiens, UniProt P25106).
T1 construct: host or cells: CHO (PathHunter CHO-CXCR7 β-arrestin cells)
The test is described as follows: CXCR7 β-arrestin recruitment assay (PathHunter CHO-CXCR7, DiscoverX), agonistic assay. The format is cell-based. How it is done: Lyophilized peptides were weighed on a Microbalance (Mettler MX5) and dissolved in DMSO to a final concentration of 10 mM unless otherwise stated. Stock solutions were kept at +4° C., and protected from light.
2.2 CXCR7 β-Arrestin Recruitment Assay
The PathHunter CHO-CXCR7 (DiscoverX) assay was performed according to the manufacturer's protocol. In brief, CHO CXCR7 β-arrestin cells were seeded at a density of 5000 cells per well in 40 μl of F12 medium in black 96-half volume well culture plates and incubated overnight at 37° C. in a humidified atmosphere with 5% CO2. The next day, serial dilutions of PEM compounds have been prepared in DMSO and subsequently diluted in HBSS buffer containing 0.1% BSA.
For agonistic assay, 10 μl of compound solution or a solution of stromal cell-derived factor-1 (SDF-1) as positive control was added to the cells with a final DMSO concentration of 1% (v/v). The plate was incubated for 90 min at 37° C. in 5% CO2 incubator with gentle shaking (300 rpm) before addition of 40 μl of detection reagent per well. Reaction was developed for 90 min at room temperature in the dark with shaking, and chemiluminescence was measured with a Topcount (Perkin Elmer) luminescence counter.

[1] abbreviates: agonistic assay, CHO CXCR7 β-arrestin cells, 90 min at 37° C., chemiluminescence, read-out: β-Arrestin EC50.

Read-outs that look alike come from different tables or passages of the source. Starred links: 1 amine or outer side, 2 acyl side, 3 side chain; linkers in the order of their positions; H or OH if unused. Non-standard residues stand in square brackets, D forms with d. Residues, ends and D or L forms follow the SMILES beside them. *: point of attachment. X3 = O=C(N[C@H]1C[C@@H](C(=O)[*:2])N([*:1])C1)c1ccccc1; Arg(Nω,Nω'-propylene) = N[C@@H](CCCNC1=NCCCN1)C(=O)O; Ala(pyrazol-1-yl) = N[C@@H](Cn1cccn1)C(=O)O; dPro(cis-4-NH2) = N[C@H]1CN[C@@H](C(=O)O)C1; X4 = Cn1ccnc1CNCCC[C@H](N[*:1])C(=O)[*:2]; Oic = O=C(O)[C@@H]1C[C@@H]2CCCC[C@@H]2N1; Morpholine(3S-CO) = O=C(O)[C@@H]1COCCN1; Pro(4S-NH2) = N[C@@H]1CN[C@H](C(=O)O)C1; Pro(4R-NH2) = N[C@H]1CN[C@H](C(=O)O)C1; dPro(3S-OH) = O=C(O)[C@@H]1NCC[C@@H]1O; 2Nal = N[C@@H](Cc1ccc2ccccc2c1)C(=O)O; Pro(3S-OH) = O=C(O)[C@H]1NCC[C@@H]1O; X2 = O=C([C@H](Cn1ncnn1)N[*:1])[*:2]; cisHyp = O=C(O)[C@@H]1C[C@H](O)CN1; Pyrazinecarbonyl = O=C(c1cnccn1)*; Tic = O=C(O)[C@@H]1Cc2ccccc2CN1; dHyp = O=C(O)[C@H]1C[C@H](O)CN1; Agb = N=C(N)NCC[C@H](N)C(=O)O; Nle = CCCC[C@H](N)C(=O)O; Orn = NCCC[C@H](N)C(=O)O; Bn = c1ccc(C*)cc1

T1 sequence (P25106 whole entry): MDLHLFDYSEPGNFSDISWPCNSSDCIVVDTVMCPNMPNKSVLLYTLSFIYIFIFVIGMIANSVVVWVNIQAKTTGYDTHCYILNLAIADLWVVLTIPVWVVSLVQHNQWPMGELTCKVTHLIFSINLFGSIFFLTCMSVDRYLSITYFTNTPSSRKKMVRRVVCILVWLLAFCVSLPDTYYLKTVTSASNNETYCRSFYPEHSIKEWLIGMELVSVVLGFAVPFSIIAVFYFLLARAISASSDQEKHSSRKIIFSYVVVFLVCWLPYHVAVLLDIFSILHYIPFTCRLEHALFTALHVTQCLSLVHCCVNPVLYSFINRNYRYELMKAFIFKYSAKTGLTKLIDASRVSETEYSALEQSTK

On to `N=C(N)NCCC[C@@H]1NC(=O)[C@H](Cc2c[nH]c3ccccc23)NC(=O)[C@@H](Cc2ccccc2)NC(=O)[C@H](Cc2ccc(O)cc2)NC(=O)[C@@H]2Cc3ccccc3CN2C(=O)[C@H]2C[C@@H](N)CN2C1=O` [compound 28, cyclo(-Tyr-^DPhe-Trp-Arg-^DPro((4R)NH2)-Tic-)] (cyclo(R[dPro(cis-4-NH2)][Tic]Y[dF]W)), for which the EC50 under setting [1] turned out to be 20.9 ± 27.3 nM.
Same read-out and setting: next, `CC[C@H](C)[C@@H]1NC(=O)[C@H](CO)NC(=O)[C@H]2CCCN2C(=O)[C@H](Cc2c[nH]c3ccccc23)NC(=O)[C@H](CCCNC(=N)N)NC(=O)[C@@H](CCCNC(=N)N)NC1=O` [Ex. 22, cyclo(-Ile-^DArg-Arg-Trp-^DPro-Ser-)] (cyclo(I[dR]RW[dP]S)): 12.8 ± 3.5 nM; `N=C(N)NCCC[C@@H]1NC(=O)[C@H](Cc2c[nH]c3ccccc23)NC(=O)[C@@H](Cc2ccccc2)NC(=O)[C@H](Cc2c[nH]c3ccccc23)NC(=O)[C@@H]2COCCN2C(=O)[C@H]2CCCN2C1=O` [compound 46, cyclo(-Trp-^DPhe-Trp-Arg-^DPro-Mor-)] (cyclo(R[dP][Morpholine(3S-CO)]W[dF]W)): 132 ± 53.1 nM; `CC[C@H](C)[C@@H]1NC(=O)[C@H]([C@@H](C)O)NC(=O)[C@H]2CCCN2C(=O)[C@H](Cc2c[nH]c3ccccc23)NC(=O)[C@H](CCCNC(=O)c2cnccn2)NC(=O)[C@@H](CCCNC(=N)N)NC1=O` [compound 64, cyclo(-Ile-^DArg-Orn(A41)-Trp-^DPro-Thr-)] (cyclo(I[dR][Orn](Pyrazinecarbonyl)W[dP]T)): 518 ± 20.9 nM.
Still for that read-out and setting: to `CC[C@H](C)[C@@H]1NC(=O)[C@@H]2[C@@H](O)CCN2C(=O)[C@H]2CCCN2C(=O)[C@H](Cc2ccc3ccccc3c2)NC(=O)[C@H](CCCNC(=N)N)NC(=O)[C@@H](CCCNC(=N)N)NC1=O` [compound 53, cyclo(-Ile-^DArg-Arg-2Nal-^DPro-Pro((3S)OH)—)] (cyclo([2Nal][dP][Pro(3S-OH)]I[dR]R)) belongs 76.8 ± 47.9 nM; to `N=C(N)NCCC[C@@H]1NC(=O)[C@H](Cc2c[nH]c3ccccc23)NC(=O)[C@@H](Cc2ccccc2)NC(=O)[C@H](Cn2cccn2)NC(=O)[C@@H]2Cc3ccccc3CN2C(=O)[C@H]2C[C@@H](N)CN2C1=O` [Ex. 74, cyclo(-Ala(1Pyraz)-^DPhe-Trp-Arg-^DPro((4R)NH2)-Tic-)] (cyclo(R[dPro(cis-4-NH2)][Tic][Ala(pyrazol-1-yl)][dF]W)), 29.9 ± 8.9 nM; to `CC(C)C[C@@H]1NC(=O)[C@H]([C@@H](C)O)NC(=O)[C@H]2CCCN2C(=O)[C@H](Cc2c[nH]c3ccccc23)NC(=O)[C@H](CCCNC(=N)N)NC(=O)[C@@H](CCCNC(=N)N)NC1=O` [compound 60, cyclo(-Leu-^DArg-Arg-Trp-^DPro-Thr-)] (cyclo(L[dR]RW[dP]T)), 5.3 ± 3.6 nM.
On the same count and under the same terms, to `C[C@@H](O)[C@@H]1NC(=O)[C@H]([C@@H](C)O)NC(=O)[C@H]2CCCN2C(=O)[C@H](CCCNC(=N)N)NC(=O)[C@H](Cc2c[nH]c3ccccc23)NC(=O)[C@@H](CCCNC(=N)N)NC1=O` [compound 19, cyclo(-Thr-^DArg-Trp-Arg-^DPro-Thr-)] (cyclo(R[dP]TT[dR]W)) belongs 17.2 ± 18.9 nM.
Turning to `O=C(N[C@H]1C[C@H]2C(=O)N[C@@H](Cc3c[nH]cn3)C(=O)N[C@H](Cc3c[nH]c4ccccc34)C(=O)N[C@@H](Cc3c[nH]cn3)C(=O)N[C@@H](Cc3c[nH]c4ccccc34)C(=O)N3CCC[C@@H]3C(=O)N2C1)c1ccccc1` [Ex. 51, cyclo(-His-^DTrp-His-Trp-^DPro-Pro((4S)NHBz)-)] (cyclo(HW[dP][X3]H[dW])), the EC50 was 413 ± 225 nM.
Turning to `CC[C@H](C)[C@@H]1NC(=O)[C@H]([C@@H](C)O)NC(=O)[C@H]2[C@@H](O)CCN2C(=O)[C@H](Cc2c[nH]c3ccccc23)NC(=O)[C@H](CCCNC(=N)N)NC(=O)[C@@H](CCCNC(=N)N)NC1=O` [Ex. 55, cyclo(-Ile-^DArg-Arg-Trp-^DPro((4S)OH)-Thr-)] (cyclo(I[dR]RW[dPro(3S-OH)]T)), under setting [1], the EC50 amounted to 632 ± 23.3 nM.
As to `N=C(N)NCCC[C@@H]1NC(=O)[C@H](Cc2c[nH]c3ccccc23)NC(=O)[C@@H](Cc2ccccc2)NC(=O)[C@H](Cn2ncnn2)NC(=O)[C@@H]2Cc3ccccc3CN2C(=O)[C@H]2C[C@@H](N)CN2C1=O` [compound 75, cyclo(-Ala(Tet)-^DPhe-Trp-Arg-^DPro((4R)NH2)-Tic-)] (cyclo(R[dPro(cis-4-NH2)][Tic][X2][dF]W)), the EC50 under setting [1] was 28.1 ± 5.1 nM.
As to `N=C(N)NCCC[C@@H]1NC(=O)[C@H](Cc2c[nH]c3ccccc23)NC(=O)[C@@H](Cc2ccccc2)NC(=O)[C@H](Cc2c[nH]c3ccccc23)NC(=O)[C@@H]2C[C@H](OCc3ccccc3)CN2C(=O)[C@H]2C[C@H](O)CN2C1=O` [compound 49, cyclo(-Trp-^DPhe-Trp-Arg-^DPro((4S)OH)-(4S)-Hyp(Bn)-)] (cyclo(R[dHyp][cisHyp](Bn)W[dF]W)), under setting [1], the EC50 worked out at 7.6 ± 10.1 nM.
On the same count and under the same terms, to `CC[C@H](C)[C@@H]1NC(=O)[C@H]([C@@H](C)O)NC(=O)[C@H]2CCCN2C(=O)[C@H](Cc2c[nH]c3ccccc23)NC(=O)[C@H](CCNC(=N)N)NC(=O)[C@@H](CCCNC(=N)N)NC1=O` [Ex. 24, cyclo(-Ile-^DArg-Agb-Trp-^DPro-Thr-)] (cyclo([Agb]W[dP]TI[dR])) belongs 22.3 ± 29.3 nM.
Same read-out and setting: to `CCCC[C@@H]1NC(=O)[C@H]([C@@H](C)O)NC(=O)[C@H]2CCCN2C(=O)[C@H](Cc2c[nH]c3ccccc23)NC(=O)[C@H](CCCNC(=N)N)NC(=O)[C@@H](CCCNC(=N)N)NC1=O` [compound 61, cyclo(-Nle-^DArg-Arg-Trp-^DPro-Thr-)] (cyclo([Nle][dR]RW[dP]T)) belongs 2.8 ± 1 nM; to `N=C(N)NCCC[C@@H]1NC(=O)[C@H](Cc2c[nH]c3ccccc23)NC(=O)[C@@H](Cc2ccccc2)NC(=O)[C@H](Cc2c[nH]c3ccccc23)NC(=O)[C@@H]2C[C@@H]3CCCC[C@@H]3N2C(=O)[C@H]2C[C@@H](N)CN2C1=O` [Ex. 41, cyclo(-Trp-^DPhe-Trp-Arg-^DPro((4R)NH2)-Oic-)] (cyclo([Oic]W[dF]WR[dPro(cis-4-NH2)])), 20.9 ± 33.7 nM.
With `Cn1ccnc1CNCCC[C@@H]1NC(=O)[C@H](Cc2c[nH]c3ccccc23)NC(=O)[C@@H](Cc2ccccc2)NC(=O)[C@H](Cc2c[nH]c3ccccc23)NC(=O)[C@@H]2Cc3ccccc3CN2C(=O)[C@H]2C[C@@H](N)CN2C1=O` [compound 78, cyclo(-Trp-^DPhe-Trp-Orn(Ar7)-^DPro((4R)NH2)-Tic-)] (cyclo([Tic]W[dF]W[X4][dPro(cis-4-NH2)])), under setting [1], the EC50 came out at 145 ± 10.9 nM.
On the same count and under the same terms, next, `C[C@@H](O)[C@@H]1NC(=O)[C@H]2CCCN2C(=O)[C@H](Cc2c[nH]c3ccccc23)NC(=O)[C@H](CCCNC(=N)N)NC(=O)[C@@H](CCCNC(=N)N)NC(=O)[C@H](Cc2c[nH]c3ccccc23)NC1=O` [Ex. 20, cyclo(-Trp-^DArg-Arg-Trp-^DPro-Thr-)] (cyclo(RW[dP]TW[dR])): 538 ± 105 nM; `N=C(N)NCCC[C@@H]1NC(=O)[C@H](Cc2c[nH]c3ccccc23)NC(=O)[C@@H](Cc2ccccc2)NC(=O)[C@H](CCNC(=N)N)NC(=O)[C@@H]2Cc3ccccc3CN2C(=O)[C@H]2C[C@@H](N)CN2C1=O` [compound 36, cyclo(-Agb-^DPhe-Trp-Arg-^DPro((4R)NH2)-Tic-)] (cyclo([Agb][dF]WR[dPro(cis-4-NH2)][Tic])): 452 ± 15.8 nM; `N=C(N)NCCC[C@@H]1NC(=O)[C@H](Cc2c[nH]c3ccccc23)NC(=O)[C@@H](Cc2ccccc2)NC(=O)[C@H](Cc2c[nH]c3ccccc23)NC(=O)[C@@H]2C[C@H](N)CN2C(=O)[C@H]2CCCN2C1=O` [compound 44, cyclo(-Trp-^DPhe-Trp-Arg-^DPro-Pro((4S)NH2)—)] (cyclo(R[dP][Pro(4S-NH2)]W[dF]W)): 36.9 ± 14 nM.
Same read-out and setting: next, `N=C(N)NCCC[C@@H]1NC(=O)[C@H](Cc2c[nH]c3ccccc23)NC(=O)[C@@H](Cc2ccccc2)NC(=O)[C@H](Cc2c[nH]c3ccccc23)NC(=O)[C@@H]2C[C@@H](N)CN2C(=O)[C@H]2CCCN2C1=O` [compound 45, cyclo(-Trp-^DPhe-Trp-Arg-^DPro-Pro((4R)NH2)—)] (cyclo(R[dP][Pro(4R-NH2)]W[dF]W)): 26.9 ± 12.6 nM.
Consider `N=C(N)NCCC[C@@H]1NC(=O)[C@@H]2Cc3ccccc3CN2C(=O)[C@H]2C[C@@H](N)CN2C(=O)[C@H](CCCNC(=N)N)NC(=O)[C@H](Cc2c[nH]c3ccccc23)NC(=O)[C@@H](Cc2ccccc2)NC1=O` [compound 33, cyclo(-Arg-^DPhe-Trp-Arg-^DPro((4R)NH2)-Tic-)] (cyclo(R[dF]WR[dPro(cis-4-NH2)][Tic])), for which, under setting [1], the EC50 worked out at 248 ± 16.5 nM.
Consider `N=C(N)NCCC[C@@H]1NC(=O)[C@H](Cc2c[nH]c3ccccc23)NC(=O)[C@@H](Cc2ccccc2)NC(=O)[C@H](CCCNC2=NCCCN2)NC(=O)[C@@H]2Cc3ccccc3CN2C(=O)[C@H]2C[C@@H](N)CN2C1=O` [compound 77, cyclo(-Orn(A56)-^DPhe-Trp-Arg-^DPro((4R)NH2)-Tic-)] (cyclo(R[dPro(cis-4-NH2)][Tic][Arg(Nω,Nω'-propylene)][dF]W)), for which the EC50 under setting [1] is 181 ± 62.9 nM.
As for `N=C(N)NCCC[C@@H]1NC(=O)[C@H](Cc2c[nH]c3ccccc23)NC(=O)[C@@H](Cc2ccccc2)NC(=O)[C@H](Cc2c[nH]c3ccccc23)NC(=O)[C@@H]2C[C@H](OCc3ccccc3)CN2C(=O)[C@H]2C[C@@H](N)CN2C1=O` [compound 50, cyclo(-Trp-^DPhe-Trp-Arg-^DPro((4R)NH2)-(4S)-Hyp(Bn)-)] (cyclo(R[dPro(cis-4-NH2)][cisHyp](Bn)W[dF]W)), the EC50 under setting [1] is 6.6 ± 1.6 nM.
